Experimental data from article PMC6609550, “Blockade of the forward Na^+/Ca^2+ exchanger suppresses the growth of glioblastoma cells through Ca^2+‐mediated cell death” (British Journal of Pharmacology, 2019).

Assays:
ERK = experiment: Western blot of phosphorylated and total ERK in U87 cells; type: cell-based, Human; conditions: 25 μM, 10, 30, 60 and 90 min
Procedure: The total protein concentration of each sample was determined using the BCA Protein Assay Kit (Sangon Biotech, Shanghai, China). Equal protein extracts (45‐μg protein per lane) were separated by SDS‐PAGE and electrophoretically transferred to PVDF membranes (Millipore, Bedford, MA, USA). Then, the membranes were incubated with anti‐phosphorylated and total http://www.guidetopharmacology.org/GRAC/FamilyDisplayForward?familyId=514, http://www.guidetopharmacology.org/GRAC/FamilyDisplayForward?familyId=518, and http://www.guidetopharmacology.org/GRAC/FamilyDisplayForward?familyId=519 antibodies (1:1,000; Cell Signaling Technology) at 4°C overnight, followed by incubation with IRDye 680LT fluorescent secondary antibody (LI‐COR Biosciences, Lincoln, NE, USA). Proteins were visualized using the Odyssey Fc Imaging System (LI‐COR Biosciences, Lincoln, NE, USA). Mouse α‐tubulin antibody was used as protein loading controls. The immuno‐related procedures used comply with the recommendations made by the British Journal of Pharmacology (Alexander et al., 2018).

[1] = design: method as in Lipsanen et al., 2013; Mitterreiter et al., 2010; conditions: oral administration or intraperitoneal injection at 50 mg·kg^−1 body weight, two animal studies; ref Lipsanen et al., 2013; Mitterreiter et al., 2010; cited from earlier work

Compound: CC(C)COCC(CN(Cc1ccccc1)c1ccccc1)N1CCCC1 (centres unmarked) [Bepridil, N‐benzyl‐N‐(3‐isobutoxy‐2‐pyrrolidin‐1‐yl‐propyl)aniline]
- Effect on ERK activity (ERK): not affected
- Penetration of the blood–brain barrier [1]: able to penetrate the blood–brain barrier (BBB) and reach the brain
